Assay results as given in patent publication US20240374609A1, “NITROSAMINE IMPURITY, VARENICLINE PHARMACEUTICAL COMPOSITION CAPABLE OF REDUCING GENERATION OF NITROSAMINE IMPURITIES AND PREPARATION AND USE THEREOF” (VIWIT PHARMACEUTICALCO., LTD., priority 2021, published 2024).
Where two headings read alike, the source gives them in different places.

Legend:
Salmonella typhimurium = test: Ames test, overall result determination; format: cell-based; conditions: in the presence and absence of metabolic activation system
Method: Whether nitrosamine impurity compound P08 is genotoxic (capable of mutagenicity or carcinogenesis) was detected.
(§1) If the test substance tested by the above test strain is negative both with and without S9, then the test substance is determined to be mutagenic negative.

[1] = test system: Salmonella Typhimurium TA97a; test: Ames test, plate incorporation method, TA97a; format: cell-based
Method: (§2) Salmonella Typhimurium TA97a, TA98, TA100, TA102, and TA1535 from MOLT OX, USA, were purchased from Shanghai Bioplus Biotech.
(§3) Rat liver S9 from Shanghai Bioplus Biotech. Co., Ltd.
(§4) The experiments were performed using the plate incorporation method.
(§5) Dose selection: The experiments were performed using 5 mg, 2.5 mg, 1.25 mg, 0.625 mg, 0.3125 mg, and 0.15625 mg per dish.
(§6) 0.1 ml of frozen bacterial solutions TA97a, TA98, TA100, TA102 and TA1535 were inoculated into the 10 ml nutrient broth mediums respectively, and cultured at 37° C. (100/min) for 10 h with shaking (100 times/min). 2.0 ml of top layer medium containing 0.5 mmol/L histidine −0.5 mmol/L biotin was dispensed into test tubes, sterilized by 0.103 MPa for 20 min, and kept in a water bath at 50° C. Then, 0.1 ml of the test substance solution, 0.5 ml of the S9 mixture (when metabolic activation was required) and 0.1 ml of the bacterial solution were added into each tube successively, mixed sufficiently, and poured into the bottom layer agar plates quickly. Then, the plates were turned to distribute even. After being placed horizontally for condensation and solidification, the plates were inverted and incubated in an incubator at 37° C. for 48 h, and the number of reverse mutation colonies per dish was counted. Three parallel plates of each dose were made, containing the spontaneous reverse mutation group, the solvent control group and the positive control group.
(§7) The data were expressed as means±standards deviation (x±s), and SPSS 19.0 was used for calculation of data analysis.
as §1

[2] = test system: Salmonella Typhimurium TA1535; format: cell-based
Method: (§8) Salmonella Typhimurium TA97a, TA98, TA100, TA102, and TA1535 from MOLT OX, USA, were purchased from Shanghai Bioplus Biotech. Co., Ltd. The test was carried out using Salmonella typhimurium strains that were identified as meeting the requirements.
as §3, §4, §5
(§9) Test substance preparation: nitrosamine impurity compound P08 was prepared to a solution of 50 mg/ml with dimethyl-sulfoxide, and diluted with dimethyl-sulfoxide to give the solutions of 25 mg/ml, 12.5 mg/ml, 6.25 mg/ml, 3.125 mg/ml, and 1.5625 mg/ml successively.
as §6, §7, §1

[3] = test system: Salmonella Typhimurium TA100; test: Ames test, plate incorporation method, TA100; format: cell-based
Method: as §2, §3, §4, §5, §6, §7, §1

[4] = test system: Salmonella Typhimurium TA98; test: Ames test, plate incorporation method, TA98; format: cell-based
Method: as §2, §3, §4, §5, §6, §7, §1

Tetranychus cinnabarinus = test: Leaf-disc spraying method, insecticidal activity; format: in vivo; conditions: 500 mg/L, spray 2.5 mL, investigated after 24 h, blank control 0%, read-out: mortality rate
Method: The bactericidal or insecticidal activity of the nitrosamine impurity compound P08 was determined according to the existing technical standards or specifications (e.g., Chinese agricultural industry standard NY/T 1156.4-2006, pesticides guidelines for laboratory bioactivity tests, bactericide, part 4: potted plant test for fungicide control of powdery mildew on wheat; Chinese agricultural industry standard NY/T 1156.5-2006, pesticides guidelines for laboratory bioactivity tests, bactericide, part 5: detached leaf test for fungicide inhibition of Rhizoctonia solani on faba bean; Chinese agricultural industry standard […], pesticides guidelines for laboratory bioactivity tests, insecticide, part 6: the immersion test for insecticide activity; Chinese agricultural industry standard NY/T 1154.9-2008, pesticides guidelines for laboratory bioactivity tests, insecticide, part 9: spraying method).
According to the Chinese agricultural industry standard NYT 1154.13-2008, pesticides guidelines for laboratory bioactivity tests, insecticide, part 13: leaf-disc spraying method, the Tetranychus cinnabarinus were inoculated on a leaf-disc of faba bean as the biological test materials. […]

[5] = test system: Salmonella Typhimurium TA102; test: Ames test, plate incorporation method, TA102; format: cell-based
Method: as §8, §3, §4, §5, §9, §6, §7, §1

O=NN1CC2CC(C1)c1cc3nccnc3cc12 [P08]
mutagenicity determination (Ames test) (Salmonella typhimurium): mutagenic positive
number of reverse mutation colonies per dish (x ± s) ([1]; +S9, 156.25 μg/dish): 209 ± 16
number of reverse mutation colonies per dish (x ± s) ([1]; +S9, 312.5 μg/dish): 248 ± 13
number of reverse mutation colonies per dish (x ± s) ([1]; +S9, 625 μg/dish): 242 ± 17
number of reverse mutation colonies per dish (x ± s) ([1]; +S9, 1250 μg/dish): 279 ± 5
number of reverse mutation colonies per dish (x ± s) ([1]; +S9, 2500 μg/dish): 297 ± 8
number of reverse mutation colonies per dish (x ± s) ([1]; +S9, 5000 μg/dish): 310 ± 19
number of reverse mutation colonies per dish (x ± s) ([1]; −S9, 156.25 μg/dish): 158 ± 11
number of reverse mutation colonies per dish (x ± s) ([1]; −S9, 312.5 μg/dish): 175 ± 6
number of reverse mutation colonies per dish (x ± s) ([1]; −S9, 625 μg/dish): 175 ± 12
number of reverse mutation colonies per dish (x ± s) ([1]; −S9, 1250 μg/dish): 160 ± 15
number of reverse mutation colonies per dish (x ± s) ([1]; −S9, 2500 μg/dish): 165 ± 10
number of reverse mutation colonies per dish (x ± s) ([1]; −S9, 5000 μg/dish): 159 ± 5
number of reverse mutation colonies per dish (x ± s) ([2]; TA1535, +S9, 156.25 μg/dish): 21 ± 0
number of reverse mutation colonies per dish (x ± s) ([2]; TA1535, +S9, 312.5 μg/dish): 20 ± 3
number of reverse mutation colonies per dish (x ± s) ([2]; TA1535, +S9, 625 μg/dish): 35 ± 7
number of reverse mutation colonies per dish (x ± s) ([2]; TA1535, +S9, 1250 μg/dish): 34 ± 3
number of reverse mutation colonies per dish (x ± s) ([2]; TA1535, +S9, 2500 μg/dish): 38 ± 5
number of reverse mutation colonies per dish (x ± s) ([2]; TA1535, +S9, 5000 μg/dish): 46 ± 6
number of colonies relative to that of the solvent control ([2]; TA1535, no S9, 625 μg/dish): more than twice
number of colonies relative to that of the solvent control ([2]; TA1535, with S9, 5000, 2500, 1250 and 625 μg/dish, dose-response relationship): more than twice
number of reverse mutation colonies per dish (x ± s) ([2]; TA1535, −S9, 156.25 μg/dish): 23 ± 2
number of reverse mutation colonies per dish (x ± s) ([2]; TA1535, −S9, 312.5 μg/dish): 36 ± 1
number of reverse mutation colonies per dish (x ± s) ([2]; TA1535, −S9, 625 μg/dish): 42 ± 4
number of reverse mutation colonies per dish (x ± s) ([2]; TA1535, −S9, 1250 μg/dish): 18 ± 2
number of reverse mutation colonies per dish (x ± s) ([2]; TA1535, −S9, 2500 μg/dish): 28 ± 2
number of reverse mutation colonies per dish (x ± s) ([2]; TA1535, −S9, 5000 μg/dish): 20 ± 2
number of reverse mutation colonies per dish (x ± s) ([3]; TA100, +S9, 156.25 μg/dish): 225 ± 9
number of reverse mutation colonies per dish (x ± s) ([3]; TA100, +S9, 312.5 μg/dish): 234 ± 6
number of reverse mutation colonies per dish (x ± s) ([3]; TA100, +S9, 625 μg/dish): 271 ± 11
number of reverse mutation colonies per dish (x ± s) ([3]; TA100, +S9, 1250 μg/dish): 287 ± 13
number of reverse mutation colonies per dish (x ± s) ([3]; TA100, +S9, 2500 μg/dish): 364 ± 19
number of reverse mutation colonies per dish (x ± s) ([3]; TA100, +S9, 5000 μg/dish): 378 ± 18
number of reverse mutation colonies per dish (x ± s) ([3]; TA100, −S9, 156.25 μg/dish): 218 ± 20
number of reverse mutation colonies per dish (x ± s) ([3]; TA100, −S9, 312.5 μg/dish): 234 ± 31
number of reverse mutation colonies per dish (x ± s) ([3]; TA100, −S9, 625 μg/dish): 224 ± 3
number of reverse mutation colonies per dish (x ± s) ([3]; TA100, −S9, 1250 μg/dish): 220 ± 10
number of reverse mutation colonies per dish (x ± s) ([3]; TA100, −S9, 2500 μg/dish): 193 ± 25
number of reverse mutation colonies per dish (x ± s) ([3]; TA100, −S9, 5000 μg/dish): 206 ± 25
number of reverse mutation colonies per dish (x ± s) ([4]; TA98, +S9, 156.25 μg/dish): 33 ± 6
number of reverse mutation colonies per dish (x ± s) ([4]; TA98, +S9, 312.5 μg/dish): 34 ± 1
number of reverse mutation colonies per dish (x ± s) ([4]; TA98, +S9, 625 μg/dish): 35 ± 2
number of reverse mutation colonies per dish (x ± s) ([4]; TA98, +S9, 1250 μg/dish): 41 ± 6
number of reverse mutation colonies per dish (x ± s) ([4]; TA98, +S9, 2500 μg/dish): 59 ± 4
number of reverse mutation colonies per dish (x ± s) ([4]; TA98, +S9, 5000 μg/dish): 53 ± 6
number of colonies relative to that of the solvent control ([4]; TA98, adding S9, 2500 μg/dish): more than twice
number of reverse mutation colonies per dish (x ± s) ([4]; TA98, −S9, 156.25 μg/dish): 29 ± 2
number of reverse mutation colonies per dish (x ± s) ([4]; TA98, −S9, 312.5 μg/dish): 27 ± 3
number of reverse mutation colonies per dish (x ± s) ([4]; TA98, −S9, 625 μg/dish): 28 ± 2
number of reverse mutation colonies per dish (x ± s) ([4]; TA98, −S9, 1250 μg/dish): 30 ± 3
number of reverse mutation colonies per dish (x ± s) ([4]; TA98, −S9, 2500 μg/dish): 31 ± 3
number of reverse mutation colonies per dish (x ± s) ([4]; TA98, −S9, 5000 μg/dish): 32 ± 2
mortality at 500 µg/mL (Tetranychus cinnabarinus): 19.6%
number of reverse mutation colonies per dish (x ± s) ([5]; TA102, +S9, 156.25 μg/dish): 249 ± 13
number of reverse mutation colonies per dish (x ± s) ([5]; TA102, +S9, 312.5 μg/dish): 253 ± 24
number of reverse mutation colonies per dish (x ± s) ([5]; TA102, +S9, 625 μg/dish): 296 ± 21
number of reverse mutation colonies per dish (x ± s) ([5]; TA102, +S9, 1250 μg/dish): 272 ± 17
number of reverse mutation colonies per dish (x ± s) ([5]; TA102, +S9, 2500 μg/dish): 283 ± 11
number of reverse mutation colonies per dish (x ± s) ([5]; TA102, +S9, 5000 μg/dish): 320 ± 15
number of reverse mutation colonies per dish (x ± s) ([5]; TA102, −S9, 156.25 μg/dish): 208 ± 13
number of reverse mutation colonies per dish (x ± s) ([5]; TA102, −S9, 312.5 μg/dish): 237 ± 6
number of reverse mutation colonies per dish (x ± s) ([5]; TA102, −S9, 625 μg/dish): 236 ± 20
number of reverse mutation colonies per dish (x ± s) ([5]; TA102, −S9, 1250 μg/dish): 245 ± 4
number of reverse mutation colonies per dish (x ± s) ([5]; TA102, −S9, 2500 μg/dish): 219 ± 11
number of reverse mutation colonies per dish (x ± s) ([5]; TA102, −S9, 5000 μg/dish): 211 ± 8
